# Where a name gives a salt, the structure may show the parent alone. Read-outs that look alike come from different tables or passages of the source. Marks after values point to notes of the source that are not given here.
# Key:
# H460 (NSCLC) = test: In vitro cytotoxicity GI50, Example 48; format: cell-based
# HCT-116 (COLON) [1] = test: In vitro cytotoxicity GI50, Example 48; format: cell-based; details: Alamar Blue or Sulfarhodamine B
# Description: The study was performed using either Alamar Blue or Sulfarhodamine B assays.
# [2] = rat, in vivo, iv; cited from earlier work
# [3] = Solubility to saturation in various solvents, supernatant analysed by HPLC; format: physicochemical
# Description: Compounds were dissolved in each solvent under constant stirring and temperature to saturation. The resulting solutions were centrifuged and the supernatant was analyzed by high performance liquid chromatography (HPLC).
# [4] = In vitro stability of the lactone form in the presence of human serum albumin; format: in vitro ADME; details: saline buffered solution 10 mM pH 7.4, 4% human serum albumin, 37° C.; emulsions vs camptothecin in DMSO; FIG. 12
# Description: High performance liquid chromatography with fluorescence detection was used to analyze the decrease in the concentration of the lactone form over time.
# HCT-116 (COLON) [5] = test: In vitro cytotoxicity GI50, Example 17; format: cell-based; details: Homo sapiens
# Description: (§1) The cells were in contact with varying concentrations of the test article for a period of 48 hours. At the end of 48 hours, staining with ALAMAR BLUE was performed to determine the number of viable cells and calculate the degree of cellular growth inhibition as compared to a control group.
# HCT-15 (COLON) = test: In vitro cytotoxicity GI50, Example 17; format: cell-based; details: Homo sapiens
# Description: as §1
# HT29 (COLON) = test: In vitro cytotoxicity GI50, Example 17; format: cell-based; details: Homo sapiens
# Description: as §1
# MCF-7 (BREAST) = test: In vitro cytotoxicity GI50, Example 17; format: cell-based; details: Homo sapiens, MCF7, emulsion formulations, 48 hours, ALAMAR BLUE
# Description: as §1
# NCI-H460 (NSCLC) = test: In vitro cytotoxicity GI50, Example 17; format: cell-based; details: Homo sapiens
# Description: as §1
# OVCAR-3 (OVARIAN) = test: In vitro cytotoxicity GI50, Example 17; format: cell-based; details: emulsion formulations, 48 hours, ALAMAR BLUE
# Description: as §1
# [6] = Pharmacokinetics after intravenous bolus in rats; format: in vivo; details: Sprague-Dawley, rat, intravenous bolus of emulsion, approximately 14 mg/kg, plasma; for half-life: read-out: t1/2 (elimination) (converted)
# Description: Blood samples were collected for up to 120 hours post dose via the jugular vein. […] A noncompartmental analysis was carried out using WinNonlin (v 4.1).
# HT-29 human tumor cells = test: HT-29 human tumor xenograft; format: in vivo, Athymic mice; details: for Number of animals with no measurable tumor on Day 55 / Tumor Growth Delay (T-C) / Tumor Growth Inhibition (% T/C): 15 mg/kg i.v.; for Mice with no measurable tumor: fifty-five days after dose initiation
# Description: HT-29 Human Tumor Xenograft. Athymic mice were subcutaneously implanted with 30-40 mg tumor fragments using 12-gauge trocar needles. A sufficient number of mice were implanted with fragments so tumors in narrow weight range (100-200 mg) were selected for the trial on staging day (SD). The animals selected with tumors in the proper size range were randomized into six groups of 10 animals and intravenously administered the following test compounds:
# In both xenograph studies, animal body weights and tumors were measured twice weekly following the initiation of dosing. The tumor measurements were performed using a caliper (millimeters); the tumor volume was calculated based on the formula: (Length×width^2)/2=Volume(mm^3).
# HT-29 (COLON) = test: In vitro cytotoxicity GI50, Example 48; format: cell-based; details: Homo sapiens, Alamar Blue or Sulfarhodamine B
# SKOV-3 (OVARIAN) = test: In vitro cytotoxicity GI50, Example 48; format: cell-based; details: Homo sapiens, SK-OV-3, Alamar Blue or Sulfarhodamine B
smiles,measurement,setting,value
"CCc1c2c(nc3ccc(OC(=O)CCC(=O)Oc4c(C)c(C)c5c(c4C)CCC(C)(CCCC(C)CCCC(C)CCCC(C)C)O5)cc13)-c1cc3c(c(=O)n1C2)COC(=O)C3(CC)OC(=O)CCC(=O)Oc1c(C)c(C)c2c(c1C)CCC(C)(CCCC(C)CCCC(C)CCCC(C)C)O2 (stereo not drawn) [10,20-diVESA-SN38, 10,20-Di(tocopherol succinate) 7-Ethyl-10-hydroxycamptothecin]",GI50,"H460 (NSCLC); H460, Alamar Blue or Sulfarhodamine B, read-out: GI50",4060 nM
same,GI50,HCT-116 (COLON) [1]; HCT-116,9330 nM
"CCc1c2c(nc3ccc(OC(C)=O)cc13)-c1cc3c(c(=O)n1C2)COC(=O)[C@@]3(CC)OC(=O)CCC(=O)Oc1c(C)c(C)c2c(c1C)CC[C@@](C)(CCC[C@H](C)CCC[C@H](C)CCCC(C)C)O2 [10-acetyl-20-VESA-SN38, 10-Acetyl-20-(d-α-tocopherolsuccinate)-7-ethyl-10-hydroxycamptothecin]",GI50,"H460 (NSCLC); Homo sapiens, NCI-H460",3900 nM
"CCc1c2c(nc3ccc(OC(=O)CCC(=O)Oc4c(C)c(C)c5c(c4C)CC[C@@](C)(CCC[C@H](C)CCC[C@H](C)CCCC(C)C)O5)cc13)-c1cc3c(c(=O)n1C2)COC(=O)[C@@]3(CC)OC(C)=O [20-acetyl-10-VESA-SN38, 20-Acetyl-10-(d-α-tocopherolsuccinate)-7-ethyl-10-hydroxycamptothecin]",GI50,"H460 (NSCLC); Homo sapiens, NCI-H460",1260 nM
same,GI50,"HCT-116 (COLON) [1]; Homo sapiens, HCT-116",144 nM
"CCc1c2c(nc3ccc(OC(=O)N4CCC(N5CCCCC5)CC4)cc13)-c1cc3c(c(=O)n1C2)COC(=O)[C@]3(O)CC [Irinotecan, irinotecan hydrochloride]",MRT,[2],1.43 h
"CC[C@@]1(OC(=O)CCC(=O)Oc2c(C)c(C)c3c(c2C)CC[C@@](C)(CCC[C@H](C)CCC[C@H](C)CCCC(C)C)O3)C(=O)OCc2c1cc1n(c2=O)Cc2cc3ccccc3nc2-1 [VESA-CPT, Butanedioic acid, (2R)-3,4-dihydro-2,5,7,8-tetramethyl-2-[(4R,8R)-4,8,12-trimethyltridecyl]-2H-1-benzopyran-6-yl (4S)-4-ethyl-3,4,12,14-tetrahydro-3,14-dioxo-1H-pyrano[3′,4′:6,7]indolizino[1,2-b]quinolin-4-yl ester]",Solubility,"[3]; Acetonitrile, Room Temp.",49.6 mg/g
same,Solubility,"[3]; Captex 300 EP, Room Temp.",96.7 mg/g
same,Solubility,"[3]; Chloroform, Room Temp.",>372.5 mg/g
same,Solubility,"[3]; DMSO, Room Temp.",>255.5 mg/g
same,Solubility,"[3]; Ethanol Denatured, Room Temp.",57.1 mg/g
same,Solubility,"[3]; Glycerin USP/EP/BP/JP, Room Temp.",2.541 mg/g
same,Solubility,"[3]; Methanol, Room Temp.",14.4 mg/g
same,Solubility,"[3]; Methylene dichloride, Room Temp.",>336.5 mg/g
same,Solubility,"[3]; PEG-400 NF, Room Temp.",17.5 mg/g
same,Solubility,"[3]; Propylene Glycol, USP, Room Temp.",0.4633 mg/g
same,Solubility,"[3]; Soybean Oil USP, Room Temp.",45.2 mg/g
same,Solubility,"[3]; TPGS, 65 °C",>133.3 mg/g
same,Solubility,"[3]; Tween 80 NF, 65 → Room Temp.",48.3 mg/g
same,Solubility,"[3]; Vitamin E USP/NF, 65 °C",>288.3 mg/g
same,Stability of the lactone form,[4],greater than that of camptothecin
same,GI50,"HCT-116 (COLON) [5]; HCT-116, 48 h",449 nM
same,GI50,"HCT-15 (COLON); HCT-15, 48 h",20000 nM
same,GI50,"HT29 (COLON); HT-29, 48 h",434 nM
same,GI50,MCF-7 (BREAST),325 nM
same,GI50,"NCI-H460 (NSCLC); NCI-H460, 48 h",43 nM
same,GI50 (result in words),OVCAR-3 (OVARIAN),Poor
same,MRT,[6]; in vivo,9.4 h
same,clearance,[6]; in vivo,0.135 mL/min/kg
same,half-life,[6]; in vivo,29.1 h
same,Number of animals with no measurable tumor on Day 55,HT-29 human tumor cells; q1dx5 (2 weeks),0/10
same,Tumor Growth Delay (T-C),HT-29 human tumor cells; q1dx5 (2 weeks),8.5 days
same,Tumor Growth Inhibition (% T/C),"HT-29 human tumor cells; q1dx5 (2 weeks), Day 55",79 % T/C
same,Number of animals with no measurable tumor on Day 55,HT-29 human tumor cells; q3dx10,0/10
same,Tumor Growth Delay (T-C),HT-29 human tumor cells; q3dx10,0 days
"CCc1c2c(nc3ccc(OC(=O)CCC(=O)Oc4c(C)c(C)c5c(c4C)CC[C@@](C)(CCC[C@H](C)CCC[C@H](C)CCCC(C)C)O5)cc13)-c1cc3c(c(=O)n1C2)COC(=O)[C@]3(O)CC [VESA-SN38, Butanedioic acid, (4S)-4,11-diethyl-3,4,12,14-tetrahydro-4-hydroxy-3,14-dioxo-1H-pyrano[3′,4′:6,7]indolizino[1,2-b]quinolin-9-yl (2R)-3,4-dihydro-2,5,7,8-tetramethyl-2-[(4R,8R)-4,8,12-trimethyltridecyl]-2H-1-benzopyran-6-yl ester]",Stability of the lactone form,[4],greater than that of camptothecin
same,GI50,"HCT-116 (COLON) [5]; HCT-116, emulsion formulations, 48 hours, ALAMAR BLUE, read-out: GI50",119 nM
same,GI50,"HCT-15 (COLON); HCT-15, emulsion formulations, 48 hours, ALAMAR BLUE, read-out: GI50",99 nM
same,GI50,"HT29 (COLON); HT-29, HT29, emulsion formulations, 48 hours, ALAMAR BLUE, read-out: GI50",91 nM
same,GI50,"NCI-H460 (NSCLC); NCI-H460, emulsion formulations, 48 hours, ALAMAR BLUE, read-out: GI50",4 nM
same,GI50,OVCAR-3 (OVARIAN); Homo sapiens,83 nM
same,MRT,[6],5.15 h
same,clearance,[6],0.112 mL/min/kg
same,half-life,[6],3.49 h
same,Number of animals with no measurable tumor on Day 55,HT-29 human tumor cells; q1dx5 (2 weeks),4/10
same,Tumor Growth Delay (T-C),HT-29 human tumor cells; q1dx5 (2 weeks),>28* days
same,Tumor Growth Inhibition (% T/C),"HT-29 human tumor cells; q1dx5 (2 weeks), Day 55",4 % T/C
same,Number of animals with no measurable tumor on Day 55,HT-29 human tumor cells; q3dx10,8/10
same,Tumor Growth Delay (T-C),HT-29 human tumor cells; q3dx10,>28* days
same,Tumor Growth Inhibition (% T/C),"HT-29 human tumor cells; q3dx10, Day 55",2 % T/C
same,Mice with no measurable tumor,HT-29 human tumor cells; q1dx5,40%
same,Mice with no measurable tumor,HT-29 human tumor cells; q3dx10,80%
"CCc1c2c(nc3ccc(OC(=O)CC4(CC(=O)Oc5c(C)c(C)c6c(c5C)CC[C@@](C)(CCC[C@H](C)CCC[C@H](C)CCCC(C)C)O6)CCCC4)cc13)-c1cc3c(c(=O)n1C2)COC(=O)[C@]3(O)CC [d-α-Tocopherol-3,3-tetramethyleneglutarate-7-ethyl-10-hydroxycamptothecin]",GI50,"H460 (NSCLC); Homo sapiens, NCI-H460, H460, Alamar Blue or Sulfarhodamine B, read-out: GI50",560 nM
same,GI50,"HCT-116 (COLON) [1]; Homo sapiens, HCT-116, HCT-116",214 nM
same,GI50,HT-29 (COLON),48 nM
"CCc1c2c(nc3ccc(OC(=O)CCCC(=O)Oc4c(C)c(C)c5c(c4C)CC[C@@](C)(CCC[C@H](C)CCC[C@H](C)CCCC(C)C)O5)cc13)C1CC3C(COC(=O)[C@]3(O)CC)C(=O)N1C2 (stereo partly drawn) [d-α-Tocopherolglutarate-SN38, d-α-Tocopherolglutarate-7-ethyl-10-hydroxycamptothecin]",GI50,"HCT-116 (COLON) [1]; Homo sapiens, HCT-116, HCT-116",190 nM
"CCc1c2c(nc3ccc(OC(=O)CC(C)CC(=O)Oc4c(C)c(C)c5c(c4C)CC[C@@](C)(CCC[C@H](C)CCC[C@H](C)CCCC(C)C)O5)cc13)-c1cc3c(c(=O)n1C2)COC(=O)[C@]3(O)CC (stereo partly drawn) [d-α-tocopherol-3-methylglutarate-SN38, d-α-Tocopherol-3-methylglutarate-7-ethyl-10-hydroxycamptothecin]",GI50,HCT-116 (COLON) [1]; HCT-116,187 nM
same,GI50,"HCT-116 (COLON) [1]; Homo sapiens, HCT-116, HCT-116",116 nM
"CCc1c2c(nc3ccc(OC(=O)CCC(=O)Oc4cc(C)c5c(c4)CC[C@@](C)(CCC[C@H](C)CCC[C@H](C)CCCC(C)C)O5)cc13)-c1cc3c(c(=O)n1C2)COC(=O)[C@]3(O)CC [δ-tocopherol succinate-SN38, δ-Tocopherolsuccinate-7-ethyl-10-hydroxycamptothecin]",GI50,SKOV-3 (OVARIAN),2.95 nM
"CCc1c2c(nc3ccc(OC(=O)CC(C)CC(=O)Oc4cc(C)c5c(c4)CC[C@@](C)(CCC[C@H](C)CCC[C@H](C)CCCC(C)C)O5)cc13)-c1cc3c(c(=O)n1C2)COC(=O)[C@]3(O)CC (stereo partly drawn) [δ-tocopherol-3-methylglutarate-SN38, δ-Tocopherol-3-methylglutarate-7-ethyl-10-hydroxycamptothecin]",GI50,SKOV-3 (OVARIAN),1.48 nM
